Assay: Bubble test, corrosion inhibition performance in brine (LPR)
Details: Forties synthetic brine, 55° C., CO2 saturated
Protocol: Corrosion Inhibition Performance in Brine
The tests were carried out using the well-known “bubble test” method, see for instance the discussion in NACE International, Vol. 46, No. 5, pp 46-51 (May 2007), where the corrosion rate is monitored by linear polarisation (LPR). First a baseline corrosion rate in the medium is established, and then corrosion rates with different amounts of inhibitor added are measured.
The detailed conditions for the tests were as follows:
CO2 CO2 Saturated at ambient pressure (˜0.9 bara partial pressure)
Solution 100% Typical “Forties” (North Sea water) synthetic brine as shown below:
• Chloride=42.539 mg/l • Sulphate=0 mg/l • Barium=173 mg/l • Calcium=1.979 mg/l • Strontium=351 mg/l • Magnesium=377 mg/l • Sodium=24.973 mg/l • Potassium=341 mg/l • Bicarbonate=200 mg/l Electrode Fabricated from AISI 1018 (UNS G10180), polished to 600 grit finish, degreased, rinsed, and dried Inhibitor Concentration 4 hour precorrosion without inhibitor, then dose with 10 or 20 mg/kg of inhibitor and evaluate corrosion rate for at least 8 h, then add inhibitor so that the next level of total inhibitor dosage is reached according to Table 1. After each addition the corrosion rate is measured for at least 8 h. Gas and partial Ambient pressure test. Maximum partial pressure 1 pressure bara (less saturated water vapour pressure at test temperature). Corrosion Monitoring LPR±10 mV step perturbation with a 2-minute time constant. A Stearn-Geary constant of 25 mV was used to calculate corrosion rates from LPR data. Corrosion rates were monitored throughout each test with a measurement taken every 30 minutes. […] The corrosion inhibitor bases were formulated as follows prior to testing: 40% base product 4% glacial acetic acid 20% n-butanol 36% water The % protection was calculated from the following equation: % protection=(1−(x/y))*100 wherein x=corrosion rate in the presence of corrosion inhibitor (mm/year) • y=corrosion rate in the absence of corrosion inhibitor (mm/year)

C12-C16 Coco benzyl quaternary amine [Quaternary amine*]
% Protection (20 ppm inhibitor): −28.3% | % Protection (50 ppm inhibitor): 38.0% | % Protection (100 ppm inhibitor): 97.7%

From patent publication US8372336B2, “Polymeric corrosion inhibitors” (Akzo Nobel Chemicals International B.V., priority 2009, dated 2013)
